The experiment in a line: compounds lowering EGFP fluorescence in F442A cells, dose response, counter-screen for p/CIP destabilizer project (AID 2005).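 Further: cells express EGFP alone from a CMV promoter as a counter screen for p/CIP-EGFP.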 The conditions noted are these: F442A EGFP cells, EGFP fluorescence, 16 h, stronger effect = higher value. (The purpose of a counterscreen is to sort out artefacts and off-target activity.)

Data on 25 molecules can be found in PubChem BioAssay AID2005 (Sanford-Burnham Center for Chemical Genomics, 2009).

Activity calls are given as the source filed them.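 How the source made its calls: active means plate Z score at or below -3, or inhibition of at least 30% at 20 µM; inactive means the rest.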

Turning to `COc1ccc(OC)c(NS(=O)(=O)c2c(C(=O)N3CCCCCC3)c(C)n(C)c2C)c1`, the inhibition by setting is: (EGFP decrease, at 10 µM) 32.8%; (at 20 µM) 15.9% (inactive).

For `Cc1ccc(S(=O)(=O)CCSc2nc(C)cc(C(F)(F)F)c2C#N)cc1`, the inhibition by setting is: (EGFP decrease, at 10 µM) -55.8%; (at 20 µM) -128% (inactive).

On to `Nc1cc(=O)[nH]c(SCC(=O)Nc2cccnc2Cl)n1`, for which the inhibition (EGFP decrease, at 10 µM) is 18.4% and the inhibition (at 20 µM) is -7.6% (inactive).

As to `O=C(Nc1ccc(N2CCOCC2)cc1N1CCOCC1)c1ccc(Br)cc1`, the inhibition is, setting by setting: (EGFP decrease, at 10 µM) 32.7%; (at 20 µM) 19.4% (inactive).

Consider `Cc1cc(C)nc(Sc2ccc3nnc(C(F)(F)C(F)(F)C(F)(F)F)n3n2)n1`, for which the inhibition by setting is: (EGFP decrease, at 10 µM) 40.7%; (at 20 µM) 15.9% (inactive).

As to `O=C(NCc1ccc(Cl)cc1)C1CCN(S(=O)(=O)c2cccs2)CC1`, the inhibition (EGFP decrease, at 10 µM) came to 6% and the inhibition (at 20 µM) was 6.7% (inactive).

Take `Cn1c(C(=O)NCc2cccnc2)cc2sc(Cl)cc21`: the inhibition by setting is: (EGFP decrease, at 10 µM) 28.8%; (at 20 µM) 32.9%.

As for `CCOC(=O)C1=C(N)Oc2cc(C)oc(=O)c2C12C(=O)N1c3c(cc(OC)cc32)C(C)=CC1(C)C` (stereo not given), the inhibition runs as follows: (EGFP decrease, at 10 µM) -0.3%; (at 20 µM) 5.1% (inactive).

On to `Cc1cc(C(=O)Nc2cccc(C)c2C)n(-c2ccccc2)n1`, for which the inhibition was -4.4% (EGFP decrease, at 10 µM) and 5.5% (inactive) (at 20 µM).

On to `Fc1ccc(CNCCc2ccccc2)cc1`, for which the inhibition is 21.5% (EGFP decrease, at 10 µM) and -9.1% (inactive) (at 20 µM).

`CCCNC(=O)Cn1c(=O)oc2ccccc21`: the inhibition (EGFP decrease, at 10 µM) is -20.6% and the inhibition (at 20 µM) is 8.8% (inactive).

On to `COc1cccc(CN2CC(C(=O)N(C)Cc3nc(C)cs3)CCC2=O)c1` (stereo not given), for which the inhibition reads like this: (EGFP decrease, at 10 µM) -5.9%; (at 20 µM) 16.2% (inactive).

As for `CCCc1sc(N/N=C/c2ccccn2)nc1-c1ccc(F)cc1`, the inhibition is, setting by setting: (EGFP decrease, at 10 µM) 20.3%; (at 20 µM) 20.4% (inactive).

`O=C(NC(=S)NCCc1ccccc1)c1ccco1`: the inhibition is 9.7% (EGFP decrease, at 10 µM) and -5.7% (inactive) (at 20 µM).

With `Cn1c(NC(=O)c2cccnc2)nc2ccccc21`, the inhibition is, setting by setting: (EGFP decrease, at 10 µM) -33.6%; (at 20 µM) -0.5% (inactive).

Consider `CCOC(=O)C(C)On1c(-c2ccccc2)nc2ccc([N+](=O)[O-])cc21` (stereo not given), for which the inhibition reads like this: (EGFP decrease, at 10 µM) 5.1%; (at 20 µM) 25% (inactive).

Consider `COc1ccccc1CNC(=O)CCCC(=O)n1ncc2cc(C)ccc21`, for which the inhibition is, setting by setting: (EGFP decrease, at 10 µM) -25.7%; (at 20 µM) 20.2% (inactive).

Take `O=C(N/N=C/c1cccc(O)c1)c1ccc(COc2cccc3cccnc23)cc1`: the inhibition reads like this: (EGFP decrease, at 10 µM) 2.4%; (at 20 µM) 7.8% (inactive).

Consider `COc1ccc(S(=O)(=O)Nc2cccc(-n3cnnn3)c2)cc1OC`, for which the inhibition runs as follows: (EGFP decrease, at 10 µM) 6.4%; (at 20 µM) 6.9% (inactive).

For the molecule `COc1ccc(C(NC(=O)CC(C)C)c2c(O)ccc3ccccc23)cc1` (stereo not given), the inhibition is 18.1% (EGFP decrease, at 10 µM) and 5.2% (inactive) (at 20 µM).

`COc1ccc(N2CCN(C(=O)c3cn(C)c(=O)c4c3c3ccccc3n4C)CC2)cc1`: the inhibition is, setting by setting: (EGFP decrease, at 10 µM) 6.2%; (at 20 µM) 20.1% (inactive).

For the molecule `CCCc1nnc(NC(=O)C2CCN(C(=O)C3CC(=O)N(c4ccc(C)cc4)C3)CC2)s1` (stereo not given), the inhibition is 13.9% (EGFP decrease, at 10 µM) and 14.4% (inactive) (at 20 µM).

Take `Cc1onc(-c2ccccc2Cl)c1C(=O)NCc1cccnc1`: the inhibition is, setting by setting: (EGFP decrease, at 10 µM) 22.1%; (at 20 µM) 15.9% (inactive).

With `CC(C)(C)n1nc2c(c1NC(=O)c1cc(Cl)ccc1[N+](=O)[O-])CS(=O)(=O)C2`, the inhibition was 10.5% (EGFP decrease, at 10 µM) and 22.6% (inactive) (at 20 µM).

`CC(C)C(=O)Nc1nnc(SCC(=O)NCc2cccs2)s1`: the inhibition by setting is: (EGFP decrease, at 10 µM) 11.1%; (at 20 µM) 12% (inactive).

In general, inhibition refers to the drop in the measured response relative to a control, in per cent.
